Columns and labels:
[1] = system: LPA 18:2 in rat plasma; experiment: Rat whole blood (plasma) LPA assay; assay type: biochemical; conditions: 2 h at 37 C, LPA 18:2 by LC-MS/MS
Experimental: Whole blood is collected from rats or mouse by exsanguinations on sodium heparin tube, then after centrifugation at 3000 rpm for 15 min at 4° C., plasma is stored at −80° C. Compounds are diluted in DMSO in concentration dependent manner then 0.5 μL are dispensed into 96-well plate placed in ice. Plasma is defrosted on ice then 49.5 μL of plasma are added into the well containing 0.5 μL of compound (1% DMSO final). Plates are covered with a lid in polypropylene and incubated at +37° C., 5% CO2, for 2 h under gentle shaking (except controls which are stored at −20° C.).
At the end of the incubation, controls are defrosted in ice and transferred in the incubated plates for LC-MS/MS analysis with a non GLP-validated method. For the analysis, plasma proteins from a 10 μL incubated plates are precipitated with an excess of methanol containing the internal standard, LPA 17:0. After centrifugation, the corresponding supernatant is injected on a C18 column. Analytes are eluted out of the column under isocratic conditions. An API5500 QTRAP mass spectrometer (ABSciex™) is used for the detection of LPA 18:2. No calibration curve is prepared for LPA 18:2, however relative quantities are evaluated based on the peak area.

[2] = biological target: T1, hENPP2 (UniProtKB/SwissProt Q13822) (Homo sapiens (Human), UniProt Q13822); experiment: fluorescent hENPP2 biochemical assay, FS-3 as substrate; conditions: read-out: FS3-IC50
Method in brief: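 IC50 values come from fluorescence gained as FS-3 is hydrolysed (ex 485, em 520 nm). The reaction, started by adding 0.75 μM FS-3 solution, runs 30 min at 30° C after a 30 min room-temperature preincubation of compound with enzyme. Buffer: Tris-HCl pH 8.0 with NaCl, KCl, MgCl2, CaCl2 and 0.1% BSA.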

[3] = biological target: T1, hENPP2; experiment: hENPP2 biochemical assay, LPC as substrate; conditions: LPC (palmitoyl 16:0) as substrate
Method in brief: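 Human ENPP2 in 50 mM Tris-HCl pH 8.5, 500 mM NaCl, 5 mM KCl, 10 mM CaCl2, 0.1% fatty-acid-free BSA, reacted 30 min at 37 °C with LPC 16:0 (150 µM solution added 1:1). Released choline measured via choline oxidase/peroxidase/TOOS/4-aminoantipyrine quinoneimine dye at 555 nm; IC50 reported.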

Row | SMILES | IC50 [1] | IC50 [2] | IC50 [3]
1 | CCc1nc2ccc(N3CCN(C(=O)C4CCCN4)CC3)cn2c1N(C)c1nc(-c2ccc(F)cc2)cs1 (stereo not drawn) [Compound 46, (4-(2-ethyl-3-((4-(4-fluorophenyl)thiazol-2-yl)(methyl)amino)imidazo[1,2-a]pyridin-6-yl)piperazin-1-yl)(pyrrolidin-2-yl)methanone] | > 1000 nM | 0.01 to 100 nM | > 1000 nM
2 | CCc1nc2ccc(N3CCN(S(=O)(=O)CCCN(C)C)CC3)cn2c1N(C)c1nc(-c2ccc(F)cc2)cs1 [Compound 56, N-(6-(4-(3-(dimethylamino)propyl-sulfonyl)piperazin-1-yl)-2-ethylimidazo[1,2-a]pyridin-3-yl)-4-(4-fluorophenyl)-N-methylthiazol-2-amine] | > 1000 nM | 0.01 to 100 nM | 500 to 1000 nM
3 | CCc1nc2ccc(N3CCN(S(=O)(=O)CCCO)CC3)cn2c1N(C)c1nc(-c2ccc(F)cc2)cs1 [Compound 58, 3-(4-(2-ethyl-3-((4-(4-fluorophenyl)thiazol-2-yl)(methyl)amino)imidazo[1,2-a]pyridin-6-yl)piperazin-1-ylsulfonyl)propan-1-ol] | > 1000 nM | 0.01 to 100 nM | > 1000 nM
4 | CCc1nc2ccc(C3=CCN(S(C)(=O)=O)CC3)cn2c1N(C)c1nc(-c2ccc(F)cc2)cs1 [Compound 66, N-(2-ethyl-6-(1-(methylsulfonyl)-1,2,3,6-tetrahydropyridin-4-yl)imidazo[1,2-a]pyridin-3-yl)-4-(4-fluorophenyl)-N-methylthiazol-2-amine] | > 1000 nM | 0.01 to 100 nM | > 1000 nM
5 | CCc1nc2ccc(C3=CCN(S(=O)(=O)CCCO)CC3)cn2c1N(C)c1nc(-c2ccc(F)cc2)cs1 [Compound 75, 3-(4-(2-ethyl-3-((4-(4-fluorophenyl)thiazol-2-yl)(methyl)amino)imidazo[1,2-a]pyridin-6-yl)-5,6-dihydropyridin-1(2H)-ylsulfonyl)propan-1-ol] | > 1000 nM | 0.01 to 100 nM | 500 to 1000 nM
6 | CCc1nc2ccc(C3CCN(S(=O)(=O)CCCN(C)C)CC3)cn2c1N(C)c1nc(-c2ccc(F)cc2)cs1 [Compound 87, N-(6-(1-(3-(dimethylamino)propyl-sulfonyl)piperidin-4-yl)-2-ethylimidazo[1,2-a]pyridin-3-yl)-4-(4-fluorophenyl)-N-methylthiazol-2-amine] | 100 to 500 nM | 0.01 to 100 nM | 100 to 500 nM
7 | CCc1nc2ccc(C3CCN(S(=O)(=O)CCCO)CC3)cn2c1N(C)c1nc(-c2ccc(F)cc2)c(F)s1 [Compound 95, 3-[4-(2-Ethyl-3-{[5-fluoro-4-(4-fluoro-phenyl)-thiazol-2-yl]-methyl-amino}-imidazo[1,2-a]pyridin-6-yl)-piperidine-1-sulfonyl]-propan-1-ol] | 100 to 500 nM | 0.01 to 100 nM | > 1000 nM
8 | CCc1nc2ccc(C3CCN(S(C)(=O)=O)CC3)cn2c1N(C)c1nc(-c2ccc(F)cc2C#N)cs1 [Compound 96, 2-(2-((2-ethyl-6-(1-(methylsulfonyl)piperidin-4-yl)imidazo [1,2-a]pyridin-3-yl)(methyl)amino)thiazol-4-yl)-5-fluorobenzonitrile] | 0.01 to 100 nM | 0.01 to 100 nM | 100 to 500 nM
9 | CCc1nc2ccc(C3CCN(CC(=O)N4CC[C@@H](O)C4)CC3)cn2c1N(C)c1nc(-c2ccc(F)cc2)cs1 [Compound 111, (R)-2-(4-(2-ethyl-3-((4-(4-fluorophenyl)thiazol-2-yl)(methyl)amino)imidazo[1,2-a]pyridin-6-yl)piperidin-1-yl)-1-(3-hydroxypyrrolidin-1-yl)ethanone] | 500 to 1000 nM | 0.01 to 100 nM | 100 to 500 nM
10 | CCc1nc2ccc(C3CCN(CC(=O)N4CC[C@H](O)C4)CC3)cn2c1N(C)c1nc(-c2ccc(F)cc2)cs1 [Compound 112, (S)-2-(4-(2-ethyl-3-((4-(4-fluorophenyl)thiazol-2-yl)(methyl)amino)imidazo[1,2-a]pyridin-6-yl)piperidin-1-yl)-1-(3-hydroxypyrrolidin-1-yl)ethanone] | 100 to 500 nM | 0.01 to 100 nM | 100 to 500 nM
11 | CCc1nc2ccc(C3CCN(S(C)(=O)=O)CC3)cn2c1N(C)c1nc(-c2ccc(F)cc2)c(C#N)s1 [Compound 136, 2-((2-ethyl-6-(1-(methylsulfonyl)piperidin-4-yl)imidazo [1,2-a]pyridin-3-yl)(methyl)amino)-4-(4-fluorophenyl) thiazole-5-carbonitrile] | 0.01 to 100 nM | 0.01 to 100 nM | 100 to 500 nM
12 | CCc1nc2ccc(N3CCN(CC(=O)N4CC(O)C4)CC3)cn2c1N(C)c1nc(-c2ccc(F)cc2)c(C#N)s1 [Compound 138, 2-((2-ethyl-6-(4-(2-(3-hydroxyazetidin-1-yl)-2-oxoethyl)piperazin-1-yl)imidazo[1,2-a]pyridin-3-yl)(methyl)amino)-4-(4-fluorophenyl)thiazole-5-carbonitrile] | 0.01 to 100 nM | 0.01 to 100 nM | 0.01 to 100 nM

The next lines start with the values.

Row | IC50 [1] | IC50 [2] | IC50 [3] | SMILES
13 | > 1000 nM | 0.01 to 100 nM | > 1000 nM | CCc1nc2ccc(N3CCN(C(=O)CCCN(C)C)CC3)cn2c1N(C)c1nc(-c2ccc(F)cc2)cs1 [Compound 53, 4-(dimethylamino)-1-(4-(2-ethyl-3-((4-(4-fluorophenyl)thiazol-2-yl)(methyl)amino)imidazo[1,2-a]pyridin-6-yl)piperazin-1-yl)butan-1-one]
14 | > 1000 nM | 0.01 to 100 nM | 500 to 1000 nM | CCc1nc2ccc(N3CCN(S(C)(=O)=O)CC3)cn2c1N(C)c1nc(-c2ccc(F)cc2)cs1 [Compound 54, N-(2-ethyl-6-(4-(methylsulfonyl)piperazin-1-yl)imidazo [1,2-a]pyridin-3-yl)-4-(4-fluorophenyl)-N-methylthiazol-2-amine]
15 | 100 to 500 nM | 0.01 to 100 nM | 100 to 500 nM | CCc1nc2ccc(C3CCN(S(=O)(=O)CCCN4CCOCC4)CC3)cn2c1N(C)c1nc(-c2ccc(F)cc2)cs1 [Compound 88, N-(2-ethyl-6-(1-(3-morpholinopropyl-sulfonyl)piperidin-4-yl)imidazo[1,2-a]pyridin-3-yl)-4-(4-fluorophenyl)-N-methylthiazol-2-amine]
16 | > 1000 nM | 0.01 to 100 nM | 500 to 1000 nM | CCc1nc2ccc(C3CCN(S(=O)(=O)CCN4CCOCC4)CC3)cn2c1N(C)c1nc(-c2ccc(F)cc2)cs1 [Compound 91, N-(2-ethyl-6-(1-(2-morpholinoethylsulfonyl)piperidin-4 yl)imidazo[1,2-a]pyridin-3-yl)-4-(4-fluorophenyl)-N-methylthiazol-2-amine]
17 | 500 to 1000 nM | 0.01 to 100 nM | 500 to 1000 nM | CCc1nc2ccc(C3CCN(S(=O)(=O)CCCO)CC3)cn2c1N(C)c1nc(-c2ccc(F)cc2)cs1 [Compound 94, 3-[4-(2-Ethyl-3-{[4-(4-fluoro-phenyl)-thiazol-2-yl]-methyl-amino}-imidazo[1,2-a]pyridin-6-yl)-piperidine-1-sulfonyl]-propan-1-ol]
18 | 100 to 500 nM | 0.01 to 100 nM | 500 to 1000 nM | CCc1nc2ccc(C3CCN(S(C)(=O)=O)CC3)cn2c1N(C)c1nc(-c2ccc(F)cc2C)cs1 [Compound 98, N-(2-ethyl-6-(1-(methylsulfonyl)piperidin-4-yl)imidazo[1,2-a]pyridin-3-yl)-4-(4-fluoro-2-methylphenyl)-N-methylthiazol-2-amine]
19 | 100 to 500 nM | 0.01 to 100 nM | 100 to 500 nM | CCc1nc2ccc(C3CCN(CC(=O)N4CC(CO)C4)CC3)cn2c1N(C)c1nc(-c2ccc(F)cc2)cs1 [Compound 113, 2-(4-(2-ethyl-3-((4-(4-fluorophenyl)thiazol-2-yl)(methyl)amino)imidazo[1,2-a]pyridin-6-yl)piperidin-1-yl)-1-(3-(hydroxymethyl)azetidin-1-yl) ethanone]
20 | 500 to 1000 nM | 0.01 to 100 nM | 100 to 500 nM | CCc1nc2ccc(C3CCN(CC(=O)N(C)C)CC3)cn2c1N(C)c1nc(-c2ccc(F)cc2)cs1 [Compound 114, 2-(4-(2-ethyl-3-((4-(4-fluorophenyl)thiazol-2-yl)(methyl)amino)imidazo[1,2-a]pyridin-6-yl)piperidin-1-yl)-N,N-dimethylacetamide]
21 | 0.01 to 100 nM | 0.01 to 100 nM | 0.01 to 100 nM | CCc1nc2ccc(C3CCN(CC(=O)N4CCCC4)CC3)cn2c1N(C)c1nc(-c2ccc(F)cc2)cs1 [Compound 115, 2-(4-(2-ethyl-3-((4-(4-fluorophenyl)thiazol-2-yl)(methyl)amino)imidazo[1,2-a]pyridin-6-yl)piperidin-1-yl)-1-(pyrrolidin-1-yl)ethanone]

— patent US9670204B2, “Compounds and pharmaceutical compositions thereof for the treatment of inflammatory disorders” (Galapagos NV, priority 2013, dated 2017)
